In US6423887B1, “Glyphosate tolerant fescue grass variety” (Pure Seed Testing, Inc., priority 2001, dated 2002):

Experiments:
Type in all cases: in vivo, Festuca arundinacea
[1] = system: seedlings, progenies of the 23 5RU clones; test: Greenhouse glyphosate screening of seedlings; settings: one quart per acre, sprayed at the three to four leaf stage, 74 out of 150
[2] = system: cloned survivors from Coronado, Apache II and Tomahawk; test: Glyphosate screening of vegetative clones in cell pack planting flats; settings: 1 quart per acre glyphosate with WA-100, clones in cell pack planting flats, sprayed 1 month after cloning
Tomahawk E tall fescue = test: Glyphosate tolerance field trial, turf seeded fall 1998 near Hubbard, Oreg.; settings: for Herbicide damage: scale 1-9, 9=no glyphosate damage; for Summer Stress: scale 1-9; for Turf quality (no herbicide): scale 1-9, 9=ideal quality
Protocol: (§1) The following tables show examples of field trials in which the glyphosate resistance characteristics of the Tomahawk RT variety were examined and compared to currently used tall fescue grass varieties. Grasses were seeded in the fall of 1998 near Hubbard, Oreg. and rated between November 1998 and September 1999.
(§2) 2, 1999. The score ratings are based on a scale of 1 to 9. For herbicide damage: 9 =no glyphosate damage; 8-7=10-20% yellowing; 6-5=30-40% yellowing with minor growth retardation; 4-3=50-60% yellowing with growth retardation; 2-1=70-90% yellowing with dead turf. For turf quality: 9=best turf quality, 0=dead turf.
(§3) Grasses were sprayed with 1 pint per acre glyphosate on Nov. 19, 1998 and ½ pint (8 oz.) per acre on Mar. 2, 1999. The effect of the herbicide application on turf quality and on glyphosate damage is shown, using a scale of 1 to 9 as described for Table 3 (9: ideal quality; no disease; no glyphosate damage). In addition, the percent of damage due to herbicide application (which indicates yellowing, stunting, and death) is shown.

5HU tall fescue = test: as above; settings: for Herbicide damage: scale 1-9, 9=no glyphosate damage; for Summer Stress: scale 1-9; for Turf quality (no herbicide): scale 1-9, 9=ideal quality
Protocol: as §1, §2, §3

Kentucky 31 tall fescue = test: as above; settings: for Herbicide damage: scale 1-9, 9=no glyphosate damage; for Summer Stress: scale 1-9; for Turf quality (no herbicide): scale 1-9, 9=ideal quality
Protocol: as §1, §2, §3

Tomahawk RT tall fescue = test: as above; settings: for Herbicide damage: scale 1-9, 9=no glyphosate damage; for Summer Stress: scale 1-9; for Turf quality (no herbicide): scale 1-9, 9=ideal quality
Protocol: as §1, §2, §3

Wolfpack tall fescue = test: as above; settings: for Herbicide damage: scale 1-9, 9=no glyphosate damage; for Summer Stress: scale 1-9; for Turf quality (no herbicide): scale 1-9, 9=ideal quality
Protocol: as §1, §2, §3

Tar Heel tall fescue = test: as above; settings: for Herbicide damage: scale 1-9, 9=no glyphosate damage; for Summer Stress: scale 1-9; for Turf quality (no herbicide): scale 1-9, 9=ideal quality
Protocol: as §1, §2, §3

Pure Gold tall fescue = test: as above; settings: for Herbicide damage: scale 1-9, 9=no glyphosate damage; for Summer Stress: scale 1-9; for Turf quality (no herbicide): scale 1-9, 9=ideal quality
Protocol: as §1, §2, §3

[3] = 1/2 pint (8 oz.) per acre sprayed Mar. 2, 1999, rated 1 April
[4] = 1/2 pint (8 oz.) per acre sprayed Mar. 2, 1999, rated 20 April
[5] = 1/2 pint (8 oz.) per acre sprayed Mar. 2, 1999, rated 24 Sept
[6] = 1 pint per acre Nov. 19, 1998 and 1/2 pint per acre Mar. 2, 1999, rated 1 Apr
[7] = 1 pint per acre Nov. 19, 1998 and 1/2 pint per acre Mar. 2, 1999, rated 1 May
[8] = 1 pint per acre Nov. 19, 1998 and 1/2 pint per acre Mar. 2, 1999, rated 20 Apr
[9] = 1 pint per acre Nov. 19, 1998 and 1/2 pint per acre Mar. 2, 1999, rated 24 Sept
[10] = 1 pint per acre sprayed Nov. 19, 1998, rated 2 Mar
[11] = 1 pint per acre sprayed Nov. 19, 1998, rated 26 Dec, % damage (yellowing, stunting, death)
[12] = 1 pint per acre sprayed Nov. 19, 1998, rated 26 Jan
[13] = 1/2 pint per acre of glyphosate herbicide (41% w/v glyphosate), field, January through September 1999
[14] = 1 pint per acre of agricultural formulation (about 0.056 g per square meter glyphosate)

Structure (SMILES): O=C(O)CNCP(=O)(O)O [Glyphosate, N-(phosphonomethyl) glycine]
- seedlings survived [1]: 50%
- survivors [2]: 5%
- Herbicide damage (Tomahawk E tall fescue; [3]): 4.3
- Herbicide damage (Tomahawk E tall fescue; [4]): 3.8
- Summer Stress (Tomahawk E tall fescue; [5]): 6.3
- Herbicide damage % (Tomahawk E tall fescue; [6]): 36.3%
- Turf quality (no herbicide) (Tomahawk E tall fescue; [6]): 2.8
- Turf quality (no herbicide) (Tomahawk E tall fescue; [7]): 4.5
- Turf quality (no herbicide) (Tomahawk E tall fescue; [8]): 3.5
- Summer Stress (Tomahawk E tall fescue; [9]): 7.3
- Herbicide damage (Tomahawk E tall fescue; [10]): 2.3
- Herbicide damage % (Tomahawk E tall fescue; [11]): 65.0%
- Turf quality (no herbicide) (Tomahawk E tall fescue; [12]): 2.8
- Herbicide damage (Tomahawk E tall fescue; [12]): 2.5
- Herbicide damage (5HU tall fescue; [3]): 5.3
- Herbicide damage (5HU tall fescue; [4]): 4.5
- Summer Stress (5HU tall fescue; [5]): 6.3
- Herbicide damage % (5HU tall fescue; [6]): 33.8%
- Turf quality (no herbicide) (5HU tall fescue; [6]): 2.8
- Turf quality (no herbicide) (5HU tall fescue; [7]): 4.8
- Turf quality (no herbicide) (5HU tall fescue; [8]): 3.8
- Summer Stress (5HU tall fescue; [9]): 7.0
- Herbicide damage (5HU tall fescue; [10]): 3.5
- Herbicide damage % (5HU tall fescue; [11]): 45.0%
- Turf quality (no herbicide) (5HU tall fescue; [12]): 3.3
- Herbicide damage (5HU tall fescue; [12]): 3.8
- Herbicide damage (Kentucky 31 tall fescue; [3]): 3.3
- Herbicide damage (Kentucky 31 tall fescue; [4]): 3.8
- Summer Stress (Kentucky 31 tall fescue; [5]): 4.5
- Herbicide damage % (Kentucky 31 tall fescue; [6]): 33.8%
- Turf quality (no herbicide) (Kentucky 31 tall fescue; [6]): 2.0
- Turf quality (no herbicide) (Kentucky 31 tall fescue; [7]): 4.0
- Turf quality (no herbicide) (Kentucky 31 tall fescue; [8]): 3.3
- Summer Stress (Kentucky 31 tall fescue; [9]): 5.8
- Herbicide damage (Kentucky 31 tall fescue; [10]): 2.8
- Herbicide damage % (Kentucky 31 tall fescue; [11]): 75.0%
- Turf quality (no herbicide) (Kentucky 31 tall fescue; [12]): 2.0
- Herbicide damage (Kentucky 31 tall fescue; [12]): 2.0
- Herbicide damage (Tomahawk RT tall fescue; [3]): 7.5
- Herbicide damage (Tomahawk RT tall fescue; [4]): 7.3
- Summer Stress (Tomahawk RT tall fescue; [5]): 6.5
- reduction in growth rate (Tomahawk RT tall fescue; [13]): no substantial reduction in growth rate
- yellowing of the grass (Tomahawk RT tall fescue; [13]): only minor amounts of yellowing
- Herbicide damage % (Tomahawk RT tall fescue; [6]): 72.5%
- Turf quality (no herbicide) (Tomahawk RT tall fescue; [6]): 6.3
- Turf quality (no herbicide) (Tomahawk RT tall fescue; [7]): 6.5
- Turf quality (no herbicide) (Tomahawk RT tall fescue; [8]): 6.0
- Summer Stress (Tomahawk RT tall fescue; [9]): 7.8
- recovery of grass plants not killed (Tomahawk RT tall fescue; [14]): complete recovery
- yellowing and retardation of plant growth (Tomahawk RT tall fescue; [14]): more yellowing of the grasses and a substantial retardation of plant growth
- Herbicide damage (Tomahawk RT tall fescue; [10]): 5.3
- Herbicide damage % (Tomahawk RT tall fescue; [11]): 21.3%
- Turf quality (no herbicide) (Tomahawk RT tall fescue; [12]): 4.3
- Herbicide damage (Tomahawk RT tall fescue; [12]): 5.3
- sensitivity to glyphosate herbicide applications (Tomahawk RT tall fescue; ambient temperature of the plants below about 32° C.): more sensitive
- sensitivity to glyphosate (Tomahawk RT tall fescue; applied during the seedling stage, within the first 60-days of planting): more sensitive
- tolerated application of agricultural formulations of glyphosate herbicide (Tomahawk RT tall fescue; depending on time of year, age of the plants and environmental conditions): up to 1 pint per acre
- Herbicide damage (Wolfpack tall fescue; [3]): 4.0
- Herbicide damage (Wolfpack tall fescue; [4]): 2.8
- Summer Stress (Wolfpack tall fescue; [5]): 5.5
- Herbicide damage % (Wolfpack tall fescue; [6]): 41.3%
- Turf quality (no herbicide) (Wolfpack tall fescue; [6]): 3.3
- Turf quality (no herbicide) (Wolfpack tall fescue; [7]): 4.8
- Turf quality (no herbicide) (Wolfpack tall fescue; [8]): 4.5
- Summer Stress (Wolfpack tall fescue; [9]): 7.8
- Herbicide damage (Wolfpack tall fescue; [10]): 3.3
- Herbicide damage % (Wolfpack tall fescue; [11]): 52.5%
- Turf quality (no herbicide) (Wolfpack tall fescue; [12]): 3.5
- Herbicide damage (Wolfpack tall fescue; [12]): 3.3
- Herbicide damage (Tar Heel tall fescue; [3]): 5.0
- Herbicide damage (Tar Heel tall fescue; [4]): 5.0
- Summer Stress (Tar Heel tall fescue; [5]): 7.0
- Herbicide damage % (Tar Heel tall fescue; [6]): 40.0%
- Turf quality (no herbicide) (Tar Heel tall fescue; [6]): 3.0
- Turf quality (no herbicide) (Tar Heel tall fescue; [7]): 5.0
- Turf quality (no herbicide) (Tar Heel tall fescue; [8]): 4.0
- Summer Stress (Tar Heel tall fescue; [9]): 7.5
- Herbicide damage (Tar Heel tall fescue; [10]): 3.3
- Herbicide damage % (Tar Heel tall fescue; [11]): 76.3%
- Turf quality (no herbicide) (Tar Heel tall fescue; [12]): 2.0
- Herbicide damage (Tar Heel tall fescue; [12]): 2.3
- Herbicide damage (Pure Gold tall fescue; [3]): 5.3
- Herbicide damage (Pure Gold tall fescue; [4]): 5.5
- Summer Stress (Pure Gold tall fescue; [5]): 5.3
- Herbicide damage % (Pure Gold tall fescue; [6]): 41.3%
- Turf quality (no herbicide) (Pure Gold tall fescue; [6]): 3.8
- Turf quality (no herbicide) (Pure Gold tall fescue; [7]): 4.8
- Turf quality (no herbicide) (Pure Gold tall fescue; [8]): 3.8
- Summer Stress (Pure Gold tall fescue; [9]): 7.3
- Herbicide damage (Pure Gold tall fescue; [10]): 3.3
- Herbicide damage % (Pure Gold tall fescue; [11]): 33.8%
- Turf quality (no herbicide) (Pure Gold tall fescue; [12]): 3.5
- Herbicide damage (Pure Gold tall fescue; [12]): 4.0
